{"source": "ChEMBL document CHEMBL5316343", "about": "“Design, Synthesis, and Biological Evaluation of a Potent Dual EZH2-BRD4 Inhibitor for the Treatment of Some Solid Tumors” (J Med Chem, 2023)", "key": {"[1]": {"molecular_target": "T1, Histone-lysine N-methyltransferase EZH1 (Homo sapiens, UniProt Q92800)", "T1 sequence (Q92800 whole entry)": "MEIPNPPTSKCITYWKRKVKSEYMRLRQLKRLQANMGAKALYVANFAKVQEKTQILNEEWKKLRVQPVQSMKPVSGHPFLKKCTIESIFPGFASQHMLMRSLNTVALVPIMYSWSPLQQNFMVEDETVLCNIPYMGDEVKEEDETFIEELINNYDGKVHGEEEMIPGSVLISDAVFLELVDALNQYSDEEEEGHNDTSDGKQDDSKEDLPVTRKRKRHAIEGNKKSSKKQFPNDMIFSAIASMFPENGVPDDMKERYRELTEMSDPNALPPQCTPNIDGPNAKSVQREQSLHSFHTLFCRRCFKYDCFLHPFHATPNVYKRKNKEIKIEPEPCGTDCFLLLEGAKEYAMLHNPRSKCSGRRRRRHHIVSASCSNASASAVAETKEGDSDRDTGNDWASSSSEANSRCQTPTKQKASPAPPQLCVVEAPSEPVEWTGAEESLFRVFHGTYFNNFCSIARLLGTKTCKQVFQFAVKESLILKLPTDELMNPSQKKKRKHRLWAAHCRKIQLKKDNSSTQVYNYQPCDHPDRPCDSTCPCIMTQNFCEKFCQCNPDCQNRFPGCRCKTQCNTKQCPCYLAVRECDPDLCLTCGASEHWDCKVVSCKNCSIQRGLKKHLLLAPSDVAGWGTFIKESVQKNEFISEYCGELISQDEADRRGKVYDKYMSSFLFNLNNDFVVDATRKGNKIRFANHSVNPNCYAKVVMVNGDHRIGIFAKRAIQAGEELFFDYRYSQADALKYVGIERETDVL", "assay": "Inhibition of EZH1 (unknown origin) by radiometric assay"}, "MDA-MB-231 [2]": {"tested_on": "MDA-MB-231", "assay": "Inhibition of cell proliferation in human MDA-MB-231 cells assessed as decrease in c-Myc mRNA level at 5 uM incubated for 48 hrs by qRT-PCR analysis", "assay_type": "functional, cell-based"}, "Mus musculus": {"tested_on": "Mus musculus", "assay": "In vivo inhibition of EZH2 in Balb/c nude mouse xenografted with human BXPC-3 cells assessed as reduction in H3K27me3 level in tumor at 60 mg/kg, ip administered daily for 30 days by IHC analysis", "assay_type": "functional, organism-based", "details": "time 30.0 day"}, "[3]": {"molecular_target": "Bromodomain-containing protein 2 (Homo sapiens, UniProt P25440)", "sequence (P25440 whole entry)": "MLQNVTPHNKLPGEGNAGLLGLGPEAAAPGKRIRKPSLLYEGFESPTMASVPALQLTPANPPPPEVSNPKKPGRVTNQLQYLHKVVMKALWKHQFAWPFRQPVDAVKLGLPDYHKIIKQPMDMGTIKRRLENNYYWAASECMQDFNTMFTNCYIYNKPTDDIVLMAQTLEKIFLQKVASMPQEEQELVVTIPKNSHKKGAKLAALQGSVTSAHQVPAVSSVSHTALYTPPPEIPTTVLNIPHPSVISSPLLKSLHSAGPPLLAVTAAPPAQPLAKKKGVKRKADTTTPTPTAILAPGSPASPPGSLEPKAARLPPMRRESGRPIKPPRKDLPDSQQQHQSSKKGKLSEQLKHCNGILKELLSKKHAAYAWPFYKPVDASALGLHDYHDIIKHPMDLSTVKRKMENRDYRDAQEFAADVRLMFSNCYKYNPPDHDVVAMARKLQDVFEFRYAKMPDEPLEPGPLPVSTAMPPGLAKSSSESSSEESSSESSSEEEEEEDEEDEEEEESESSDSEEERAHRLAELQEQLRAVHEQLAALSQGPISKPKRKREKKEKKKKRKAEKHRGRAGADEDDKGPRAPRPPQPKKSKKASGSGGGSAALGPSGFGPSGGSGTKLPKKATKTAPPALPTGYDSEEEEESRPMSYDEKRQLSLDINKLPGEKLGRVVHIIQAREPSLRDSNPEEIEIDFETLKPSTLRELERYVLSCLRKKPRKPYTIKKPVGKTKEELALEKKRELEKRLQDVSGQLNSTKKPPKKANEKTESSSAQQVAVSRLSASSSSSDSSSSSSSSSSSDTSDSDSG", "assay": "Inhibition of BRD2-BD1/2 (unknown origin) by HTRF analysis"}, "[4]": {"molecular_target": "Histone-lysine N-methyltransferase EZH2 (Homo sapiens, UniProt Q15910)", "sequence (Q15910 whole entry, looked up)": "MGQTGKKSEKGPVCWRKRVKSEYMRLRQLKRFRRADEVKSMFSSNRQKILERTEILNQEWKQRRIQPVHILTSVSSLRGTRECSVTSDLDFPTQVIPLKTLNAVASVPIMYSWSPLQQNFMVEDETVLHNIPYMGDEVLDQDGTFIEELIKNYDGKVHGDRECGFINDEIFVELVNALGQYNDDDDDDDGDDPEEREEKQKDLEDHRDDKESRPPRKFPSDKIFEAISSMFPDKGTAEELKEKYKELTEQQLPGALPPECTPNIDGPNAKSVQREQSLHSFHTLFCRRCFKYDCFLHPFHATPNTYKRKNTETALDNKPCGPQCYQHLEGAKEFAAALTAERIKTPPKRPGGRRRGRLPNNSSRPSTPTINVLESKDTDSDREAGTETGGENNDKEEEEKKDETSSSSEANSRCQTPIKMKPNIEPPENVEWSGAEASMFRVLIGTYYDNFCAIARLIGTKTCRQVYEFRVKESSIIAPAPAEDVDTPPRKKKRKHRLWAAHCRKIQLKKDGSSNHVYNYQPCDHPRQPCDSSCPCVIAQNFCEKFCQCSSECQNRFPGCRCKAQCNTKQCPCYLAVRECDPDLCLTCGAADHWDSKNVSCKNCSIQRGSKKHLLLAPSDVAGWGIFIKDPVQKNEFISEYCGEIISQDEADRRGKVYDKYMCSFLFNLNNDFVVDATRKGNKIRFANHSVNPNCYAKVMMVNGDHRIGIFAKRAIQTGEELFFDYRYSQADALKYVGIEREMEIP", "assay": "Inhibition of EZH2 in human MDA-MB-231 cells assessed as decrease in H3K27me3 level at 5 uM by fluorescence based analysis", "assay_type": "cell-based"}, "95-D": {"tested_on": "95-D", "assay": "Antiproliferative activity against human 95-D cells assessed as inhibition of cell proliferation incubated for 6 days by CCK8 assay", "assay_type": "functional, cell-based", "details": "time 6.0 day"}, "BXPC-3 [5]": {"tested_on": "BXPC-3", "assay": "Inhibition of cell proliferation in human BXPC-3 cells assessed as decrease in c-Myc protein level at 5 uM incubated for 48 hrs by IHC analysis", "assay_type": "functional, cell-based"}, "[6]": {"assay": "AUC(0 to t) in ICR mouse at 60 mg/kg, ip measured upto 24 hrs by LC-MS/MS analysis", "assay_type": "ADME, organism-based", "parameters": "time < 24 hrs, dose 60 mg/kg, route ip", "details": "in vivo"}, "PANC-1": {"tested_on": "PANC-1", "assay": "Antiproliferative activity against human PANC-1 cells assessed as inhibition of cell proliferation incubated for 6 days by CCK8 assay", "assay_type": "functional, cell-based", "details": "time 6.0 day"}, "BXPC-3 [7]": {"tested_on": "BXPC-3", "assay": "Induction of apoptosis in human BXPC-3 cells assessed as viable cells at 2.5 uM incubated for 48 hrs by Annexin V-FITC/PI staining based flow cytometric analysis (reference value: 90.70%)", "assay_type": "functional", "details": "read-out: Activity"}, "BXPC-3 [8]": {"tested_on": "BXPC-3", "assay": "Induction of apoptosis in human BXPC-3 cells assessed as late apoptotic cells at 1 uM incubated for 48 hrs by Annexin V-FITC/PI staining based flow cytometric analysis (reference value: 4.38 %)", "assay_type": "functional"}, "MDA-MB-231 [9]": {"tested_on": "MDA-MB-231", "assay": "Induction of apoptosis in human MDA-MB-231 cells assessed as viable cells at 2.5 uM incubated for 48 hrs by Annexin V-FITC/PI staining based flow cytometric analysis (reference value: 97.63%)", "assay_type": "functional", "details": "read-out: Activity"}, "BXPC-3 [10]": {"tested_on": "BXPC-3", "assay": "Antiproliferative activity against human BXPC-3 cells assessed as inhibition of cell proliferation incubated for 6 days by CCK8 assay", "assay_type": "functional, cell-based", "details": "time 6.0 day"}, "MDA-MB-231 [11]": {"tested_on": "MDA-MB-231", "assay": "Induction of apoptosis in human MDA-MB-231 cells assessed as viable cells at 5 uM incubated for 48 hrs by Annexin V-FITC/PI staining based flow cytometric analysis (reference value: 97.63%)", "assay_type": "functional", "details": "read-out: Activity"}, "BXPC-3 [12]": {"tested_on": "BXPC-3", "assay": "Induction of cell cycle arrest in human BXPC-3 cells assessed as accumulation of cells at G0/G1 phase at 1 to 5 uM incubated for 48 hrs by flow cytometric analysis", "assay_type": "functional, cell-based", "details": "dose 1-5 µM"}, "A549": {"tested_on": "A549", "assay": "Antiproliferative activity against human A549 cells assessed as inhibition of cell proliferation incubated for 6 days by CCK8 assay", "assay_type": "functional, cell-based", "details": "time 6.0 day"}, "[13]": {"assay": "Cmax in ICR mouse at 60 mg/kg, ip measured upto 24 hrs by LC-MS/MS analysis", "assay_type": "ADME, organism-based", "parameters": "time < 24 hrs, dose 60 mg/kg, route ip", "details": "in vivo"}, "MDA-MB-231 [14]": {"tested_on": "MDA-MB-231", "assay": "Induction of apoptosis in human MDA-MB-231 cells assessed as late apoptotic cells at 1 uM incubated for 48 hrs by Annexin V-FITC/PI staining based flow cytometric analysis (reference value: 1.06%)", "assay_type": "functional"}, "[15]": {"assay": "Tmax in ICR mouse at 60 mg/kg, ip measured upto 24 hrs by LC-MS/MS analysis", "assay_type": "ADME, organism-based", "details": "in vivo"}, "MDA-MB-231 [16]": {"tested_on": "MDA-MB-231", "assay": "Induction of apoptosis in human MDA-MB-231 cells assessed as necrotic cells at 1 uM incubated for 48 hrs by Annexin V-FITC/PI staining based flow cytometric analysis (reference value: 0.63%)", "assay_type": "functional"}, "[17]": {"assay": "AUC(0 to infinity) in ICR mouse at 60 mg/kg, ip measured upto 24 hrs by LC-MS/MS analysis", "assay_type": "ADME, organism-based", "parameters": "time < 24 hrs, dose 60 mg/kg, route ip", "details": "in vivo"}, "MDA-MB-231 [18]": {"tested_on": "MDA-MB-231", "assay": "Induction of apoptosis in human MDA-MB-231 cells assessed as viable cells at 1 uM incubated for 48 hrs by Annexin V-FITC/PI staining based flow cytometric analysis (reference value: 97.63%)", "assay_type": "functional", "details": "read-out: Activity"}, "[19]": {"assay": "Half-life in ICR mouse at 60 mg/kg, ip measured upto 24 hrs by LC-MS/MS analysis", "assay_type": "ADME, organism-based", "details": "in vivo"}, "BXPC-3 [20]": {"tested_on": "BXPC-3", "assay": "Induction of apoptosis in human BXPC-3 cells assessed as early apoptotic cells at 5 uM incubated for 48 hrs by Annexin V-FITC/PI staining based flow cytometric analysis (reference value: 3.28 %)", "assay_type": "functional"}, "[21]": {"assay": "Toxicity in Balb/c nude mouse xenografted with human BXPC-3 cells assessed as effect on body weight at 30 to 60 mg/kg, ip administered daily for 30 days", "assay_type": "organism-based", "details": "in vivo, 720 h, dose 30-60 mg/kg, time 30 day"}, "[22]": {"molecular_target": "Bromodomain-containing protein 3 (Homo sapiens, UniProt Q15059)", "sequence (Q15059 whole entry)": "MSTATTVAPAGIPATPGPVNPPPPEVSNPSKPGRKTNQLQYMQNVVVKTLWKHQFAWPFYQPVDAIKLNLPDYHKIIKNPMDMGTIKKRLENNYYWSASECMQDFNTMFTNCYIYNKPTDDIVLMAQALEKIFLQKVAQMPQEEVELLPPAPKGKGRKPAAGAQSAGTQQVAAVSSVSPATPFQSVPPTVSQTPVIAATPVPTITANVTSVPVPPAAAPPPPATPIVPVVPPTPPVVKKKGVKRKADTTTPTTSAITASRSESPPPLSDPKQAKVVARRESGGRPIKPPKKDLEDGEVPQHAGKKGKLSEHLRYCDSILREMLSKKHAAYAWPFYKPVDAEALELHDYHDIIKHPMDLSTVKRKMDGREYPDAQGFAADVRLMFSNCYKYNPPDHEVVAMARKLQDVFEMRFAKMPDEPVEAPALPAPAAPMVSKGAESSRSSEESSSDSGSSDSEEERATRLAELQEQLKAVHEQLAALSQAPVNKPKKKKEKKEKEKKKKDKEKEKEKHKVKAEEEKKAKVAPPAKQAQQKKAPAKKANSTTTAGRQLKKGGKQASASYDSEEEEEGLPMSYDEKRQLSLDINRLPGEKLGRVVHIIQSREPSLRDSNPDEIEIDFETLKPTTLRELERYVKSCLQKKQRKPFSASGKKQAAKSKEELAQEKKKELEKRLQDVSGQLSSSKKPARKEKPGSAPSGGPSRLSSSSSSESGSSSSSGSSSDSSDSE", "assay": "Inhibition of BRD3-BD1/2 (unknown origin) by HTRF analysis"}, "[23]": {"assay": "Protein binding in mouse plasma assessed as bound fraction at 2 uM incubated for 5 hrs by equilibrium based LC-MS/MS analysis", "assay_type": "ADME, cell-free", "details": "read-out: PPB (converted)"}, "BXPC-3 [24]": {"tested_on": "BXPC-3", "assay": "Induction of apoptosis in human BXPC-3 cells assessed as necrotic cells at 5 uM incubated for 48 hrs by Annexin V-FITC/PI staining based flow cytometric analysis (reference value: 1.65 %)", "assay_type": "functional"}}, "note": "pIC50: −log10 of the molar value. Calls of active or inactive are those of the source. The calls are words filed in the database; no cut-off is given here."}
{"smiles": "CCC(C)n1ccc2c(C(=O)NCc3c(C)cc(C)[nH]c3=O)cc(-c3cn(C)c(=O)c4[nH]ccc34)cc21", "note": "(stereo not drawn)", "values": [{"measurement": "pIC50", "setting": "[1]", "result": 5.59}, {"measurement": "inhibition", "setting": "MDA-MB-231 [2]", "result": "Active"}, {"measurement": "inhibition", "setting": "Mus musculus", "result": "Active"}, {"measurement": "pIC50", "setting": "[3]", "result": 7.51}, {"measurement": "inhibition", "setting": "[4]", "result": "Active"}, {"measurement": "Activity", "setting": "95-D", "result": "Active"}, {"measurement": "inhibition", "setting": "BXPC-3 [5]", "result": "Active"}, {"measurement": "AUC(0-t) at 24 h", "setting": "[6]", "result": 1820, "unit": "ng·h/mL"}, {"measurement": "Activity", "setting": "PANC-1", "result": "Active"}, {"measurement": "viability at 2.5 µM", "setting": "BXPC-3 [7]", "result": 71, "unit": "%"}, {"measurement": "Activity", "setting": "BXPC-3 [8]", "result": 7.61, "unit": "%"}, {"measurement": "viability at 2.5 µM", "setting": "MDA-MB-231 [9]", "result": 87.8, "unit": "%"}, {"measurement": "Activity", "setting": "BXPC-3 [10]", "result": "Active"}, {"measurement": "viability at 5 µM", "setting": "MDA-MB-231 [11]", "result": 81.1, "unit": "%"}, {"measurement": "Activity", "setting": "BXPC-3 [12]", "result": "Active"}, {"measurement": "Activity", "setting": "A549", "result": "Active"}, {"measurement": "Cmax", "setting": "[13]", "result": 2960, "unit": "ng/mL"}, {"measurement": "Activity", "setting": "MDA-MB-231 [14]", "result": 1.36, "unit": "%"}, {"measurement": "Tmax", "setting": "[15]", "result": 4.98, "unit": "min"}, {"measurement": "Activity", "setting": "MDA-MB-231 [16]", "result": 0.87, "unit": "%"}, {"measurement": "AUC(0-inf)", "setting": "[17]", "result": 2000, "unit": "ng·h/mL"}, {"measurement": "viability at 1 µM", "setting": "MDA-MB-231 [18]", "result": 94.8, "unit": "%"}, {"measurement": "half-life", "setting": "[19]", "result": 13.6, "unit": "h"}, {"measurement": "Activity", "setting": "BXPC-3 [20]", "result": 10.73, "unit": "%"}, {"measurement": "Activity", "setting": "[21]", "result": "Non-Toxic"}, {"measurement": "pIC50", "setting": "[22]", "result": 7.49}, {"measurement": "fraction unbound at 5 h, 2 µM", "setting": "[23]", "result": 0.009}, {"measurement": "Activity", "setting": "BXPC-3 [24]", "result": 3.35, "unit": "%"}]}
